# From PMC6806261, “Modified Peptide YY Molecule Attenuates the Activity of NPY/AgRP Neurons and Reduces Food Intake in Male Mice” (Endocrinology, 2019)
# Where no end group is shown, it is not given here.
# Tests used:
# [1] = tested on: Agrp-cre::hM3Dq-mCherry mice; experiment: DREADD (hM3Dq/CNO)-stimulated feeding; format: in vivo, mouse
# Method: For surgery, mice (8 to 12 weeks) were anesthetized with isoflurane (1 L/min O2 with 2% isoflurane). Following surgery, all mice received 0.03 mg/kg buprenorphine (Buprenex, Reckitt Benckiser, Slough, UK) and were allowed a minimum of 1 week to recover before treatment started. DIO mice received subcutaneous implants of an Alzet 2002 osmotic minipump (Durect, Cupertino, CA). All of the DIO mice experienced a small reduction in body weight following implantation of the minipump. For experiments using designer receptors exclusively activated by designer drugs (DREADDs), AgRP-cre mice received bilateral injections of AAV2-hSyn-DIO-hM3Dq-mCherry (UNC Vector Core, Chapel Hill, NC) ([35]) into the arcuate nucleus (3 × 23 nL per side), using the following coordinates relative to Bregma, according to Paxinos and Franklin ([36]): anterior, −1.5 mm; lateral, ±0.30 mm; and ventral, −6.2 mm. Subsequently, the DREADDs were activated by IP injection of the designer drug, clozapine N-oxide (CNO; Sigma-Aldrich, St. Louis, MO) at 1 mg/kg.
# NPY/AgRP neurons = experiment: cFos immunohistochemistry in arcuate NPY/AgRP neurons; format: in vivo, mouse
# Method: Mice were transcardially perfused with chilled 0.9% NaCl followed by 4% paraformaldehyde in 0.1M phosphate buffer (Sigma-Aldrich). Whole brains were postfixed overnight and then dehydrated in 30% sucrose solution. Brains were flash frozen on dry ice, and then 30 µm sections were collected using a freezing sledge microtome and transferred to 0.1M phosphate buffer.
# For chromogenic visualization of cFos, free-floating sections were incubated sequentially in rabbit anit-cFos primary [1:1000; SC-52; Santa Cruz, Dallas, TX ([37])], biotinylated goat anit-rabbit secondary [1:500; BA-1000; Vector Laboratories, Cambridge, UK ([38])], and streptavidin-biotin-peroxidase complex (1:500; RPN1051; GE Healthcare, Chicago, IL). This was combined with fluorescence staining for GFP or mCherry reporters; this required coincubation of sections with chicken anit-GFP [1:1000; 13970; Abcam, Cambridge, UK ([39])] followed by donkey anit-chicken^ALEXA 488 [1:1000; 703-545-155, Jackson ImmunoResearch, West Grove, PA ([40])], or with rabbit anti-DsRed [1:1000, 632396, Clontech, CA ([41])] followed by donkey […]^ALEXA 594 [1:1000; 705-585-147; Jackson ImmunoResearch, ([42])]. Sections were mounted on slides before imaging on an Olympus BX51 upright microscope. Images were processed and analyzed using open-source FIJI software.
# human Y5 receptor = conditions: ref [9] Østergaard et al., read-out: binding inhibitory constant (Ki), Y5 receptor; cited from earlier work
# Excerpt: (§1) PYY3-36 and ghrelin were purchased from Bachem (Bubendorf, Switzerland). NNC0165-1273 was identified from a series of modified PYY peptides and synthesized with the aim of increased selectivity for Y2 receptors vs the other Y receptors [peptide no. 29 in Østergaard et al. ([9])].
# human Y1 receptor = conditions: ref [9] Østergaard et al., read-out: binding inhibitory constant (Ki), Y1 receptor; cited from earlier work
# Excerpt: as §1
# human Y4 receptor = conditions: ref [9] Østergaard et al., read-out: binding inhibitory constant (Ki), Y4 receptor; cited from earlier work
# Excerpt: as §1
# [2] = cited from earlier work
# Excerpt: as §1
# human Y2 receptor = conditions: same binding assays for both peptides, ref [9] Østergaard et al., read-out: binding inhibitory constant (Ki), Y2 receptor; cited from earlier work
# Excerpt: as §1
# mice [3] = experiment: Normal nighttime feeding after SC injection; format: in vivo, mouse; conditions: serial dilution, food intake after 2 hours
# Method: (§2) For acute experiments, mice were acclimated to handling for 2 weeks and housed singly with free access to food at least 4 days before experiments. Nighttime injections of NNC0165-1273 were given subcutaneously (SC) 30 minutes before start of “dark phase,” and food intake was measured 1, 2, 4, and 14 hours later. Daytime feeding experiments commenced 4 hours into the “light phase” [Zeitgeber time (ZT) 4]; injections of ghrelin (2 mg/kg, IP) and NNC0165-1273/PYY3-36 (various doses, SC) were given concomitantly, and food intake measured at 1, 2, 4, and 24 hours later.
# [4] = tested on: arcuate NPY/AgRP neurons (Npy-hrGFP); experiment: Current clamp patch electrophysiology in brain slices; format: cell-based, mouse; conditions: 50 nM bath application; results not shown
# Method: Npy-hrGFP mice were euthanized by decapitation, and the brains rapidly removed and sliced on a vibratome (Campden Instruments, Loughborough, UK) in ice-cold oxygenated incubation artificial cerebrospinal fluid (aCSF) containing (mM): 95 NaCl, 1.8 KCl, 1.2 KH2PO4, 7 MgSO4, 26 NaHCO3, 0.5 CaCl2, 15 glucose, and 50 sucrose. Slices were perfused with room temperature recording aCSF containing (mM): 127 NaCl, 1.8 KCl, 1.2 KH2PO4, 1.3 MgSO4, 26 NaHCO3, 2.4 CaCl2, and 5 glucose. Npy-hrGFP neurons were visualized in 250-µm slices using an Olympus BX51 with inbuilt infrared video-enhanced differential interference contrast optics and GFP fluorescence optics. Neurons were patched using 7 to 10 MΩ pipettes containing (mM): 130 K-gluconate, 10 KCl, 2 MgCl2, 10 HEPES, 0.5 EGTA, 2 K2ATP, and 0.5 NaGTP. Data were recorded on an Axoclamp 2A amplifier in bridge mode (Molecular Devices, San Jose, CA) and a CED 1401 A/D data acquisition interface (CED, Cambridge, UK) to give current clamp data at 30 kHz sampling frequency. NNC0165-1273 (Novo Nordisk, Maaloev, Denmark) was diluted in aCSF to a concentration of 50 nM and applied to perfusion chamber through a gravity-driven system. Effects were sampled with no current manipulations. All applications were timed for 3 to 5 minutes and perfusion flow was maintained at standard 1 to 2 mL/min^−1.
# mice [5] = experiment: Ghrelin-induced daytime feeding; format: in vivo, mouse; conditions: 2 mg/kg IP, light phase, fed mice
# Method: as §2
compound,measurement,setting,value
"C[N+]1([O-])CCN(C2=Nc3cc(Cl)ccc3Nc3ccccc32)CC1 [CNO, clozapine N-oxide]",food intake in Agrp-cre::hM3Dq-mCherry mice,"[1]; single IP injection 1 mg/kg, vs saline",substantial increase in food intake
same,food intake in wild-type mice,"[1]; wild-type mice, results not shown",do not respond
PYY3-36: truncated major circulating form of gut hormone peptide YY; purchased from Bachem,ghrelin-induced activation (cFos) of NPY/Agrp neurons,"NPY/AgRP neurons; pretreatment before ghrelin 2 mg/kg, perfused 90 minutes after ghrelin, Npy-hrGFP mice",blocked
same,Ki,human Y5 receptor,3.2 nM
same,Ki,human Y1 receptor,40 nM
same,Ki,human Y4 receptor,13 nM
same,half-life in pig plasma,[2],3.33 h
same,Ki,human Y2 receptor,0.4 nM
same,threshold dose needed to inhibit nighttime feeding,mice [3],0.04 µmol/kg
"ghrelin: orexigenic peptide purchased from Bachem, used to induce feeding and activate NPY/AgRP neurons (GSSFLSPEHQRVQQRKESKKPPAKLQPR; ends and bridges not checked; UniProt Q9UBU3 24-51, looked up)","cFos expression in the arcuate nucleus, notably NPY-hrGFP neurons","NPY/AgRP neurons; ghrelin 2 mg/kg, 90 minutes after injection",substantial increase
same,resting membrane potential of NPY/AgRP neurons,[4],increase in the resting membrane potential
same,food intake after ghrelin alone,mice [5],substantial increase in food intake
